{"source": "ChEMBL document CHEMBL4715821", "about": "“Discovery of 4-ethoxy-7H-pyrrolo[2,3-d]pyrimidin-2-amines as potent, selective and orally bioavailable LRRK2 inhibitors” (Bioorg Med Chem Lett, 2018)", "key": {"[1]": {"assay": "Dose normalized AUC (0 to t) in Han-Wistar rat blood at 10 mg/kg, po measured up to 7 hrs by UPLC-MS/MS analysis", "assay_type": "ADME, organism-based", "conditions": "in vivo"}, "[2]": {"assay": "Ratio of total drug concentration in brain to blood in Han-Wistar rat at 10 mg/kg, po", "assay_type": "ADME, organism-based"}, "[3]": {"biological_target": "Cytochrome P450 3A4 (Homo sapiens, UniProt P08684)", "sequence (P08684 whole entry)": "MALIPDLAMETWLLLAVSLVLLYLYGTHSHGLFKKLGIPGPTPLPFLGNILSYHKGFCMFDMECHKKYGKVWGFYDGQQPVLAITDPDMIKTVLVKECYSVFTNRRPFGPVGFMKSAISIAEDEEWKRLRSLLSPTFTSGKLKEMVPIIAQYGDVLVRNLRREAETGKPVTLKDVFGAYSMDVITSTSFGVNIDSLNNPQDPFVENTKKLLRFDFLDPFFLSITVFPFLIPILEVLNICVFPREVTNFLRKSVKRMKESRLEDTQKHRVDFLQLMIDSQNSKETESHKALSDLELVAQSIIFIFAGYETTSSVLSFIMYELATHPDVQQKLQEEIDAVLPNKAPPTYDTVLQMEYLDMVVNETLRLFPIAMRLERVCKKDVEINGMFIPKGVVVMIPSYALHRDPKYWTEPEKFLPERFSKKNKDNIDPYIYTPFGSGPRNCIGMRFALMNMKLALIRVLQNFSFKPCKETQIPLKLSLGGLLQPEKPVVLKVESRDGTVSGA", "assay": "Inhibition of human CYP3A4", "assay_type": "ADME"}, "[4]": {"biological_target": "Activated CDC42 kinase 1 (Homo sapiens) (UniProt Q07912)", "sequence (Q07912 whole entry, looked up)": "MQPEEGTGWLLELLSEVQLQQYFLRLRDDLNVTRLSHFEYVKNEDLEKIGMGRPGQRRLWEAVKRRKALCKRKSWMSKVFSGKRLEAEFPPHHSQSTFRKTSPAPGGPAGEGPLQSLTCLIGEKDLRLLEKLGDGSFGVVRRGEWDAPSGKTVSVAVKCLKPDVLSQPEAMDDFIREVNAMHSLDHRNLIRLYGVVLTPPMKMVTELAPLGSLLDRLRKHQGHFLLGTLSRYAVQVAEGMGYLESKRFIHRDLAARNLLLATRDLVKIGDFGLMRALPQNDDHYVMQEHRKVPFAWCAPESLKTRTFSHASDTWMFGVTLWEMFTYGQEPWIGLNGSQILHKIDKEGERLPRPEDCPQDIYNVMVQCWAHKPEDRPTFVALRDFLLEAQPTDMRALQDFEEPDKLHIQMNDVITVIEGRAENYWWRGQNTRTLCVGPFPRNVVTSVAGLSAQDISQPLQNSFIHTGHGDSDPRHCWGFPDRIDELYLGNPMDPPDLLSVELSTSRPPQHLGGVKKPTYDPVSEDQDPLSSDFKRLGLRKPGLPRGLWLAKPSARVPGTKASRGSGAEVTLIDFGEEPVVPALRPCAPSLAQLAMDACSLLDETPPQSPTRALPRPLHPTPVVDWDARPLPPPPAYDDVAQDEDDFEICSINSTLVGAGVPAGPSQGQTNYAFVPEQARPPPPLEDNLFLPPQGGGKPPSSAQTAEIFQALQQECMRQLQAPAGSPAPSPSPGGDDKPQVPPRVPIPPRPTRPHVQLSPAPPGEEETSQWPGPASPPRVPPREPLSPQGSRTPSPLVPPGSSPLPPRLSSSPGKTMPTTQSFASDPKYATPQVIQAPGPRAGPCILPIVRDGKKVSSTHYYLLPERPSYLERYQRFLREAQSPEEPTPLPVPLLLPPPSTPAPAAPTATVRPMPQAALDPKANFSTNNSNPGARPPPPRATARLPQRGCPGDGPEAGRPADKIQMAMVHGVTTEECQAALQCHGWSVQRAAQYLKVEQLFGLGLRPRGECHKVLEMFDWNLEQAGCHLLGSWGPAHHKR", "assay": "Inhibition of ACK1 (unknown origin) assessed as residual activity at 1 uM relative to control"}, "[5]": {"biological_target": "Tyrosine-protein kinase receptor UFO (Homo sapiens) (UniProt P30530)", "assay": "Inhibition of wild-type human partial length AXL (R497 to Y821 residues) expressed in bacterial expression system assessed as residual activity at 1 uM by Kinomescan method relative to control"}, "[6]": {"biological_target": "Hepatocyte growth factor receptor (Homo sapiens) (UniProt P08581)", "sequence (P08581 whole entry, the tested form may be a part)": "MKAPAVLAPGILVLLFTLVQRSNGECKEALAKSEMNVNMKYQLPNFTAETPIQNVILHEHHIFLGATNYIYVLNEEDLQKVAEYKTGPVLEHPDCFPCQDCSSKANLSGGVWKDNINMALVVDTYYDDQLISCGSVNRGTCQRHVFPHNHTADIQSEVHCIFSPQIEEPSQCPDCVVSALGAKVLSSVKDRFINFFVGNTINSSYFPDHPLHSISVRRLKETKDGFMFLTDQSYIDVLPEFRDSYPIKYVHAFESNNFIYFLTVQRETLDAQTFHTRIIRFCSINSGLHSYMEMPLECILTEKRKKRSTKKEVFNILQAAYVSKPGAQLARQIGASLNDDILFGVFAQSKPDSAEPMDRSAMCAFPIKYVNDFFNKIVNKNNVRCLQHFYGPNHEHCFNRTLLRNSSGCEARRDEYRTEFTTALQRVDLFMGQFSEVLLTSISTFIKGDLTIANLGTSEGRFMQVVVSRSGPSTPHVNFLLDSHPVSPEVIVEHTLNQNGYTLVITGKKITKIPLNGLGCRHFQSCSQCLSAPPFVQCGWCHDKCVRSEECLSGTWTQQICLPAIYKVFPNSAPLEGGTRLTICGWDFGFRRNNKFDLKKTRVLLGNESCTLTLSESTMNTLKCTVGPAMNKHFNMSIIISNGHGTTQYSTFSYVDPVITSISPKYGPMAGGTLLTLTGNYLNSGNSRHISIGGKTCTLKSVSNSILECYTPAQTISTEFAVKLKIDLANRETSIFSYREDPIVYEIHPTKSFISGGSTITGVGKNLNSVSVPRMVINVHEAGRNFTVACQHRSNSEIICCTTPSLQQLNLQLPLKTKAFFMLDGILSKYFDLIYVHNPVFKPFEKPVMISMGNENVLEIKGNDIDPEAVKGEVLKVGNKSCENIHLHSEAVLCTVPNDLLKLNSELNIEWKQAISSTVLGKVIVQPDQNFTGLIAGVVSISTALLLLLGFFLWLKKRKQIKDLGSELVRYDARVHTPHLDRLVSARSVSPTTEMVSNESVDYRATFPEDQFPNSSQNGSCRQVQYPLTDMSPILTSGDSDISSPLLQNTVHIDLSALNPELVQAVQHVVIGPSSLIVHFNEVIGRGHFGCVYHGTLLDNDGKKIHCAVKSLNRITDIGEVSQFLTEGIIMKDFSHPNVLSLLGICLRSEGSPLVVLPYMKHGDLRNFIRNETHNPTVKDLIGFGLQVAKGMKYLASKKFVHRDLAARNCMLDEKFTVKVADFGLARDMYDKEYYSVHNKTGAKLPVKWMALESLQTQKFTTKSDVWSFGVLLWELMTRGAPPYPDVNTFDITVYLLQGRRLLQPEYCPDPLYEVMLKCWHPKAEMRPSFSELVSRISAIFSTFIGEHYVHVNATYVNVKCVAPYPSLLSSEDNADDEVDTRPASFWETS", "assay": "Inhibition of wild-type human partial length c-MET (D1010 to S1367 residues) expressed in bacterial expression system assessed as residual activity at 1 uM by Kinomescan method relative to control"}, "[7]": {"biological_target": "CDK3/Cyclin E (Homo sapiens) (UniProt P24864+Q00526)", "assay": "Inhibition of wild-type human full length CDK3 (M1 to H305 residues)/Cyclin E expressed in bacterial expression system at 1 uM by Kinomescan method", "design": "scale not given: the % may be the effect or the level left"}, "[8]": {"biological_target": "Cyclin-dependent kinase 5/CDK5 activator 1 (Homo sapiens) (UniProt Q00535+Q15078)", "assay": "Inhibition of wild-type human full length CDK5 (M1 to P292 residues)/p25 expressed in bacterial expression system assessed as residual activity at 1 uM by Kinomescan method relative to control"}, "[9]": {"biological_target": "Dual specificity protein kinase CLK2 (Homo sapiens) (UniProt P49760)", "sequence (P49760 whole entry, looked up, the tested form may be a part)": "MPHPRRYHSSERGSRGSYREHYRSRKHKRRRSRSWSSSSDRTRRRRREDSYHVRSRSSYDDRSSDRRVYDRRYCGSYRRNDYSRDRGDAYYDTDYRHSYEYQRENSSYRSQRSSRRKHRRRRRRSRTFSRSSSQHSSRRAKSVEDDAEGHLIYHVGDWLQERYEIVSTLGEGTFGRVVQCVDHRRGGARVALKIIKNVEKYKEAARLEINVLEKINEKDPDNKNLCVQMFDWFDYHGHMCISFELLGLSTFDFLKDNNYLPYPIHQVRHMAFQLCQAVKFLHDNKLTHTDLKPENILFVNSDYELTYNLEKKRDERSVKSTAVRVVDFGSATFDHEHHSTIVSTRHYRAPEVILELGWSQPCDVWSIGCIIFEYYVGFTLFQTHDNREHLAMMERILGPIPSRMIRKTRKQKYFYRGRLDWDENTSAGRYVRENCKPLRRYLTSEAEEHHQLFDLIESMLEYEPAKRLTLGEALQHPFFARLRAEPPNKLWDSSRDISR", "assay": "Inhibition of wild-type human partial length CLK2 (D144 to R498 residues) expressed in bacterial expression system assessed as residual activity at 1 uM by Kinomescan method relative to control"}, "[10]": {"biological_target": "Dual specificity protein kinase CLK4 (Homo sapiens) (UniProt Q9HAZ1)", "assay": "Inhibition of wild-type human partial length CLK4 (R135 to K481 residues) expressed in bacterial expression system assessed as residual activity at 1 uM by Kinomescan method relative to control"}, "[11]": {"biological_target": "Dual specificity tyrosine-phosphorylation-regulated kinase 4 (Homo sapiens) (UniProt Q9NR20)", "assay": "Inhibition of DYRK4 (unknown origin) assessed as residual activity at 1 uM by Kinomescan method relative to control"}, "[12]": {"biological_target": "Beta-adrenergic receptor kinase 1 (Homo sapiens) (UniProt P25098)", "assay": "Inhibition of wild-type human full length GRK2 (M1 to L689 residues) expressed in mammalian expression system assessed as residual activity at 1 uM by Kinomescan method relative to control"}, "[13]": {"biological_target": "G protein-coupled receptor kinase 3 (Homo sapiens) (UniProt P35626)", "assay": "Inhibition of wild-type human full length GRK3 (M1 to L688 residues) expressed in mammalian expression system assessed as residual activity at 1 uM by Kinomescan method relative to control"}, "[14]": {"biological_target": "Interleukin-1 receptor-associated kinase 1 (Homo sapiens) (UniProt P51617)", "assay": "Inhibition of wild-type human partial length IRAK1 (R194 to S712 residues) expressed in mammalian expression system assessed as residual activity at 1 uM by Kinomescan method relative to control"}, "[15]": {"biological_target": "LIM domain kinase 1 (Homo sapiens) (UniProt P53667)", "assay": "Inhibition of wild-type human full length LIMK1 (M1 to D647 residues) expressed in bacterial expression system assessed as residual activity at 1 uM by Kinomescan method relative to control"}, "[16]": {"biological_target": "MAP kinase-interacting serine/threonine-protein kinase 1 (Homo sapiens) (UniProt Q9BUB5)", "assay": "Inhibition of MNK1 (unknown origin) assessed as residual activity at 1 uM by Kinomescan method relative to control"}, "[17]": {"biological_target": "MAP kinase-activated protein kinase 5 (Homo sapiens) (UniProt Q8IW41)", "assay": "Inhibition of wild-type human partial length MAPKAPK5 (M1 to D322 residues) expressed in mammalian expression system assessed as residual activity at 1 uM by Kinomescan method relative to control"}, "[18]": {"biological_target": "Serine/threonine-protein kinase MARK2 (Homo sapiens) (UniProt Q7KZI7)", "assay": "Inhibition of wild-type human partial length MARK2 (M1 to R450 residues) expressed in bacterial expression system assessed as residual activity at 1 uM by Kinomescan method relative to control"}, "[19]": {"biological_target": "MAP/microtubule affinity-regulating kinase 4 (Homo sapiens) (UniProt Q96L34)", "assay": "Inhibition of wild-type human partial length MARK4 (K29 to G340 residues) expressed in bacterial expression system assessed as residual activity at 1 uM by Kinomescan method relative to control"}, "[20]": {"biological_target": "Dual specificity mitogen-activated protein kinase kinase 6 (Homo sapiens) (UniProt P52564)", "sequence (P52564 whole entry)": "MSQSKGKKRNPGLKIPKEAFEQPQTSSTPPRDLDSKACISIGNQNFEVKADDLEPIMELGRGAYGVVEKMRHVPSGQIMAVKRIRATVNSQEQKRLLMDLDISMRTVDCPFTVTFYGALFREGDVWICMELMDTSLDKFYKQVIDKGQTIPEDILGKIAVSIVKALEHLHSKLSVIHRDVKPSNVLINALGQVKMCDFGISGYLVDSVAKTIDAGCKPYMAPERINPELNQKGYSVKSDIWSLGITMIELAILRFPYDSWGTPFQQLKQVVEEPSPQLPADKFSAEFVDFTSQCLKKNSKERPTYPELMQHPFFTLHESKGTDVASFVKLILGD", "assay": "Inhibition of MKK6 (unknown origin) assessed as residual activity at 1 uM by Kinomescan method relative to control"}, "[21]": {"biological_target": "Myosin light chain kinase 2, skeletal/cardiac muscle (Homo sapiens) (UniProt Q9H1R3)", "assay": "Inhibition of MLCK2 (unknown origin) assessed as residual activity at 1 uM by Kinomescan method relative to control"}, "[22]": {"biological_target": "cGMP-dependent protein kinase 1 (Homo sapiens) (UniProt Q13976)", "sequence (Q13976 whole entry)": "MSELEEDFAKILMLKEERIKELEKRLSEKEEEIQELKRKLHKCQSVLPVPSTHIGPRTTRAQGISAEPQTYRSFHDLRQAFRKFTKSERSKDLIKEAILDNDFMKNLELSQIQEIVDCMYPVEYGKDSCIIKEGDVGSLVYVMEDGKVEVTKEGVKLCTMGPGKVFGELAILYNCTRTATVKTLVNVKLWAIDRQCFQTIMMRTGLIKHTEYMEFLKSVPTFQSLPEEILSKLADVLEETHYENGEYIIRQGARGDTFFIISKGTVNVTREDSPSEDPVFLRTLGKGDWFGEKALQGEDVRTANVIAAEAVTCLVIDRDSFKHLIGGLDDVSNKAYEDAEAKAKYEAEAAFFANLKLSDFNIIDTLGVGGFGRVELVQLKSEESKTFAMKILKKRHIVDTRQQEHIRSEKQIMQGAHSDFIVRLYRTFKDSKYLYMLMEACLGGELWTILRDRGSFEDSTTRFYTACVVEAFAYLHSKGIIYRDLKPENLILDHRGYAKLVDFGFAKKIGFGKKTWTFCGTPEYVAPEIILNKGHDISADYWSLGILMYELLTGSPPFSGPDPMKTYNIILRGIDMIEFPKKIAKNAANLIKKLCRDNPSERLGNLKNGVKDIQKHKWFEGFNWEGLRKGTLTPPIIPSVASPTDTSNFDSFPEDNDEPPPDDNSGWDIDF", "assay": "Inhibition of PKG1a (unknown origin) assessed as residual activity at 1 uM by Kinomescan method relative to control"}, "[23]": {"biological_target": "cGMP-dependent protein kinase 1 (Homo sapiens) (UniProt Q13976)", "assay": "Inhibition of PKG1beta (unknown origin) assessed as residual activity at 1 uM by Kinomescan method relative to control"}, "[24]": {"biological_target": "Serine/threonine-protein kinase TAO2 (Homo sapiens) (UniProt Q9UL54)", "assay": "Inhibition of wild-type human partial length TAOK2 (M1 to A320 residues) expressed in mammalian expression system assessed as residual activity at 1 uM by Kinomescan method relative to control"}, "[25]": {"biological_target": "Tyrosine-protein kinase TXK (Homo sapiens) (UniProt P42681)", "sequence (P42681 whole entry, the tested form may be a part)": "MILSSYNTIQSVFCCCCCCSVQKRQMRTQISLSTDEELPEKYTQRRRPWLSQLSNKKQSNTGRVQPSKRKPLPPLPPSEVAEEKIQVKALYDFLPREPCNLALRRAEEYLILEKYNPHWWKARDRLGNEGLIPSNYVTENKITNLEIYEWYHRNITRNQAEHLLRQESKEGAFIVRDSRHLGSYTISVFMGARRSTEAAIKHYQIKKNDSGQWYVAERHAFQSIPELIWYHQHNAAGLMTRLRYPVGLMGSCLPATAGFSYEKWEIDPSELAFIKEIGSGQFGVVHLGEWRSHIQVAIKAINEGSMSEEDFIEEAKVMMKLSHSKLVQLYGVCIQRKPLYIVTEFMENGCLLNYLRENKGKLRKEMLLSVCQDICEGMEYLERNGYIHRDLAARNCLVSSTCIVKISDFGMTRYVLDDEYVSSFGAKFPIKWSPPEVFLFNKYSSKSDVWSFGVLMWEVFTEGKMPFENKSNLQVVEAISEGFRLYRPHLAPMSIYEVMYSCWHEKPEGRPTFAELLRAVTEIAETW", "assay": "Inhibition of wild-type human partial length TXK (L238 to W527 residues) expressed in bacterial expression system assessed as residual activity at 1 uM by Kinomescan method relative to control"}, "[26]": {"biological_target": "Tyrosine-protein kinase receptor TYRO3 (Homo sapiens) (UniProt Q06418)", "assay": "Inhibition of wild-type human partial length TYRO3 (S497 to T814 residues) expressed in bacterial expression system assessed as residual activity at 1 uM by Kinomescan method relative to control"}, "[27]": {"biological_target": "Dual specificity testis-specific protein kinase 1 (Homo sapiens) (UniProt Q15569)", "assay": "Inhibition of wild-type human full length TESK1 (R37 to S626 residues) expressed in bacterial expression system assessed as residual activity at 1 uM by Kinomescan method relative to control"}, "[28]": {"biological_target": "Serine/threonine-protein kinase VRK2 (Homo sapiens) (UniProt Q86Y07)", "assay": "Inhibition of wild-type human partial length VRK2 (M1 to T336 residues) expressed in mammalian expression system assessed as residual activity at 1 uM by Kinomescan method relative to control"}}}
{"smiles": "CCOc1nc(Nc2ccc(C(=O)N3CCOCC3)cc2OC)nc2[nH]ccc12", "values": [{"measurement": "AUCt/dose", "setting": "[1]", "value": 1034, "unit": "ng·h/g/mg/kg"}, {"measurement": "Kp", "setting": "[2]", "value": 0.24}, {"measurement": "IC50", "setting": "[3]", "value": 158, "unit": "µM"}, {"measurement": "Activity", "setting": "[4]", "value": 27.9, "unit": "%"}, {"measurement": "Activity", "setting": "[5]", "value": 93.9, "unit": "%"}, {"measurement": "Activity", "setting": "[6]", "value": 104, "unit": "%"}, {"measurement": "Activity", "setting": "[7]", "value": 87.7, "unit": "%"}, {"measurement": "Activity", "setting": "[8]", "value": 85.8, "unit": "%"}, {"measurement": "Activity", "setting": "[9]", "value": 28.3, "unit": "%"}, {"measurement": "Activity", "setting": "[10]", "value": 35.5, "unit": "%"}, {"measurement": "Activity", "setting": "[11]", "value": 94.6, "unit": "%"}, {"measurement": "Activity", "setting": "[12]", "value": 100, "unit": "%"}, {"measurement": "Activity", "setting": "[13]", "value": 97.2, "unit": "%"}, {"measurement": "Activity", "setting": "[14]", "value": 105, "unit": "%"}, {"measurement": "Activity", "setting": "[15]", "value": 98, "unit": "%"}, {"measurement": "Activity", "setting": "[16]", "value": 98.7, "unit": "%"}, {"measurement": "Activity", "setting": "[17]", "value": 81.8, "unit": "%"}, {"measurement": "Activity", "setting": "[18]", "value": 96, "unit": "%"}, {"measurement": "Activity", "setting": "[19]", "value": 101, "unit": "%"}, {"measurement": "Activity", "setting": "[20]", "value": 63.1, "unit": "%"}, {"measurement": "Activity", "setting": "[21]", "value": 95.6, "unit": "%"}, {"measurement": "Activity", "setting": "[22]", "value": 92.5, "unit": "%"}, {"measurement": "Activity", "setting": "[23]", "value": 90.3, "unit": "%"}, {"measurement": "Activity", "setting": "[24]", "value": 103, "unit": "%"}, {"measurement": "Activity", "setting": "[25]", "value": 88, "unit": "%"}, {"measurement": "Activity", "setting": "[26]", "value": 109, "unit": "%"}, {"measurement": "Activity", "setting": "[27]", "value": 104, "unit": "%"}, {"measurement": "Activity", "setting": "[28]", "value": 102, "unit": "%"}]}
